# Experimental data from US7049342B2, “Substituted phenylpropionic acid derivatives” (Kyorin Pharmaceutical Co., Ltd., priority 2000, dated 2006).
# What was measured:
# human type PPARα = molecular target: T1, human type PPARα (Homo sapiens, UniProt Q07869); assay: Test of transcriptional activation on peroxisome proliferator-activated receptor α; type: cell-based; conditions: CHO cells cotransfected with yeast DNA-binding domain/human PPARα ligand-binding domain fusion receptor plasmid, reporter plasmid and Renilla luciferase internal standard; luciferase measured after 24 hours; read-out: Transcription-activating function EC50
# T1 construct: expressed in transfected cells; host or cells: CHO cells
# T1 sequence (Q07869 239-466 limits assumed): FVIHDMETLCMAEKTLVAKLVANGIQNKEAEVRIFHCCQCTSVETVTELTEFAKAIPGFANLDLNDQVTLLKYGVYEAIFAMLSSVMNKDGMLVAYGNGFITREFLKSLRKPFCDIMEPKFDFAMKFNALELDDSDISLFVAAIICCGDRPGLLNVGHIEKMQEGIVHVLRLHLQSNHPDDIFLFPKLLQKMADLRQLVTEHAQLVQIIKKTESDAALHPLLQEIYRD
# Source text: Test of Transcriptional Activation on Peroxisome Proliferator-Activated Receptor α
# To CHO cells cultured in a Dulbecco-modified Eagle's medium containing 10% delipid fetal calf serum (FCS/DMEM), receptor plasmid that expresses fused protein of DNA-binding domain being transcription factor of yeast with ligand-binding domain of human type PPARα (Biochemistry, 1993, 32, 5598), its reporter plasmid (STRATAGENE Corp.) and luciferase plasmid of Renilla (Promega Corp.) as internal standard were cotransfected with lipofectamine in the serum-free state. Thereafter, testing compound was added in the 10% SFCS/DMEM and both luciferase activities were measured after 24 hours, which were corrected with internal standard.
melting point [°C],EC50 (human type PPARα) [nM],SMILES
124 to 125,,"COc1ccc(CC(OC)C(=O)O)cc1NC(=O)Cc1ccc(C(F)(F)F)cc1 (stereo not shown) [Example 39, 2-Methoxy-3-[4-methoxy-3-[2-[4-(trifluoromethyl)phenyl]acetylamino]phenyl]propanoic acid]"
64 to 66,,"CCC(Cc1ccc(OC)c(OCCc2ccc(C(F)(F)F)cc2)c1)C(=O)O (stereo not shown) [Example 120, 2-Ethyl-3-[4-methoxy-3-[2-[4-(trifluoromethyl)phenyl]ethoxy]phenyl]propanoic acid]"
,50,CCC(Cc1ccc(OC)c(NC(=O)Cc2ccc(OCc3ccccc3)cc2)c1)C(=O)O (stereo not shown) [Example 46]
136 to 137,15,"CCC(Cc1ccc(OC)c(CC(=O)Nc2ccc(C(F)(F)F)cc2)c1)C(=O)O (stereo not shown) [Example 88, 2-Ethyl-3-[4-methoxy-3-[[N-[4-(trifluoromethyl)phenyl]carbamoyl]methyl]phenyl]propanoic acid]"
,1300,"CCCCC/C=C\C/C=C\C=C\[C@@H](O)C/C=C\CCCC(=O)O [(8S) HETE, reference compound]"
,160,COc1ccc(CC(OC)C(=O)O)cc1NC(=O)Cc1ccc(Oc2ccccc2)cc1 (stereo not shown) [Example 70]
121 to 123,,"CCC(Cc1ccc(OC)c(CC(=O)Nc2ccc(C(F)(F)F)cc2)c1)C(=O)O (single isomer, unassigned; (-)) [Example 121 (−), (−)-2-ethyl-3-[4-methoxy-3-[[N-[4-(trifluoromethyl)phenyl]carbamoyl]methyl]-phenyl]propanoic acid]"
177,130,COc1ccc(CCC(=O)O)cc1NC(=O)Cc1ccc(-c2ccccc2)cc1 [Example 44]
